Values of other authors as cited in patent US20160304881A1, “DDR1 ANTAGONIST OR AN INHIBITOR OF DDR1 GENE EXPRESSION FOR USE IN THE PREVENTION OR TREATMENT OF CRESCENTIC GLOMERULONEPHRITIS” (INSERM (INSTITUT NATIONAL DE LA SANTE ET DE LA RECHERCHE …, priority 2011, published 2016).

Biological target: DDR1 (Homo sapiens, UniProt Q08345)
Conditions: described in Day et al. (2008)

DDR1, sequence (Q08345 19-913): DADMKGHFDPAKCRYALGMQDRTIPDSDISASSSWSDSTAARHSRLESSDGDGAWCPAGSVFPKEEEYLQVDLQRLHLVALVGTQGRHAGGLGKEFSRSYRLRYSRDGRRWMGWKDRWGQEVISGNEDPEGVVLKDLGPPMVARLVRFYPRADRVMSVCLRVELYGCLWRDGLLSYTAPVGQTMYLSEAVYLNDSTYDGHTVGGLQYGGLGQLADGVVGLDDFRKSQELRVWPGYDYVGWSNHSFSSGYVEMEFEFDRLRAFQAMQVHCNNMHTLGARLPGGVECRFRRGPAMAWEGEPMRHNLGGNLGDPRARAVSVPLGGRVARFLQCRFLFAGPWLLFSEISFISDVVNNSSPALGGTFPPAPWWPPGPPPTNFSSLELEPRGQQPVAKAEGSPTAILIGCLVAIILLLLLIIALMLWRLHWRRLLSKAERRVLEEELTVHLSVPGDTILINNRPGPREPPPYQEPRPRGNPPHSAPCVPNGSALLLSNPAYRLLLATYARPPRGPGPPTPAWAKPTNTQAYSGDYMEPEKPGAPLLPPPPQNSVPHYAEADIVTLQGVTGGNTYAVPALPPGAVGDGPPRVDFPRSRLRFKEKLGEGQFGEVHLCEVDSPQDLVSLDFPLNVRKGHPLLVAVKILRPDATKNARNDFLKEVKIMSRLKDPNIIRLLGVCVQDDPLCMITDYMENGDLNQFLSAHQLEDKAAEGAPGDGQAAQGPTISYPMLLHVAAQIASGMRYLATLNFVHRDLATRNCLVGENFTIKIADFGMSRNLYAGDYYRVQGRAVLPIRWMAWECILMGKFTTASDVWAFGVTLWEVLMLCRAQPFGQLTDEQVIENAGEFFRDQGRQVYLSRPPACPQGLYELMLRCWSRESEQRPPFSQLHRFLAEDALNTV

Compound | collagen-induced DDR1 activation
Cc1cn(-c2cc(NC(=O)c3ccc(C)c(Nc4nccc(-c5cccnc5)n4)c3)cc(C(F)(F)F)c2)cn1 [nilotinib, 4-methyl-N-[3-(4-methyl-1H-imidazol-1-yl)-5-(trifluoromethyl)phenyl]-3-[(4-pyridin-3-ylpyrimidin-2-yl)amino]benzamide] | inhibitors of collagen-induced DDR1 activation
Cc1nc(Nc2ncc(C(=O)Nc3c(C)cccc3Cl)s2)cc(N2CCN(CCO)CC2)n1 [dasatinib, N-(2-chloro-6-methylphenyl)-2-[[6-[4-(2-hydroxyethyl)-1-piperazinyl]-2-methyl-4-pyrimidinyl]amino]-5-thiazole carboxamide] | inhibitors of collagen-induced DDR1 activation
